Assay results reported in ChEMBL document CHEMBL5131407, “Design, synthesis and activity evaluation of prodrug form JBP485 and Vitamin E for alleviation of NASH” (Bioorg Med Chem Lett, 2022).
The source made the active and inactive calls.

Assays:
Format in all cases: functional, organism-based
[1] = tested on: Mus musculus; experiment: Anti-NASH activity in CCl4-induced nonalcoholic steatohepatitis C57BL mouse at 60 mg/kg by Oil red-O staining based assay
[2] = tested on: Mus musculus; experiment: Anti-NASH activity in CCl4-induced nonalcoholic steatohepatitis C57BL mouse assessed as reduction in triglyceride level at 60 mg/kg
[3] = tested on: Mus musculus; experiment: Anti-NASH activity in CCl4-induced nonalcoholic steatohepatitis C57BL mouse assessed as reduction in steatosis at 60 mg/kg by H and E staining based assay
[4] = tested on: Mus musculus; experiment: Anti-NASH activity in CCl4-induced nonalcoholic steatohepatitis C57BL mouse assessed as reduction in liver fibrosis at 60 mg/kg checked in presence of 30 to 100 mg/kg JBP485 by sirius red staining based assay
[5] = tested on: Mus musculus; experiment: Anti-NASH activity in CCl4-induced nonalcoholic steatohepatitis C57BL mouse assessed as reduction in liver ballooning degeneration at 60 mg/kg checked in presence of 30 to 100 mg/kg JBP485 by H and E staining based assay
[6] = tested on: Mus musculus; experiment: Anti-NASH activity in CCl4-induced nonalcoholic steatohepatitis C57BL mouse assessed as decrease in IL-2 expression at 60 mg/kg checked in presence of JBP485 by flow cytometry; conditions: time 14.0 day
[7] = tested on: Mus musculus; experiment: Anti-NASH activity in CCl4-induced nonalcoholic steatohepatitis C57BL mouse assessed as reduction in liver index at 60 mg/kg
[8] = tested on: Mus musculus; experiment: Anti-NASH activity in CCl4-induced nonalcoholic steatohepatitis C57BL mouse assessed as decrease in IFN expression at 60 mg/kg checked in presence of JBP485 by flow cytometry; conditions: time 14.0 day
[9] = tested on: Mus musculus; experiment: Anti-NASH activity in CCl4-induced nonalcoholic steatohepatitis C57BL mouse assessed as reduction in triglyceride level at 60 mg/kg checked in presence of JBP485
[10] = tested on: Mus musculus; experiment: Anti-NASH activity in CCl4-induced nonalcoholic steatohepatitis C57BL mouse assessed as reduction in liver fibrosis at 60 mg/kg by sirius red staining based assay
[11] = tested on: Mus musculus; experiment: Anti-NASH activity in CCl4-induced nonalcoholic steatohepatitis C57BL mouse at 60 mg/kg checked in presence of 30 to 100 mg/kg JBP485 by Oil red-O staining based assay
[12] = tested on: Mus musculus; experiment: Anti-NASH activity in CCl4-induced nonalcoholic steatohepatitis C57BL mouse assessed as reduction in malondialdehyde level at 60 mg/kg checked in presence of JBP485
[13] = tested on: Mus musculus; experiment: Anti-NASH activity in CCl4-induced nonalcoholic steatohepatitis C57BL mouse assessed as reduction in liver index at 60 mg/kg checked in presence of 30 to 100 mg/kg JBP485
[14] = tested on: Mus musculus; experiment: Anti-NASH activity in CCl4-induced nonalcoholic steatohepatitis C57BL mouse assessed as reduction in liver ballooning degeneration at 60 mg/kg by H and E staining based assay
[15] = tested on: Mus musculus; experiment: Anti-NASH activity in CCl4-induced nonalcoholic steatohepatitis C57BL mouse assessed as reduction in liver lobular inflammation at 60 mg/kg by H and E staining based assay
[16] = tested on: Mus musculus; experiment: Anti-NASH activity in CCl4-induced nonalcoholic steatohepatitis C57BL mouse assessed as reduction in total cholesterol level at 60 mg/kg checked in presence of JBP485
[17] = tested on: Mus musculus; experiment: Anti-NASH activity in CCl4-induced nonalcoholic steatohepatitis C57BL mouse assessed as decrease in IL-17A expression at 60 mg/kg checked in presence of JBP485 by flow cytometry; conditions: time 14.0 day
[18] = tested on: Mus musculus; experiment: Anti-NASH activity in CCl4-induced nonalcoholic steatohepatitis C57BL mouse assessed as reduction in liver lobular inflammation at 60 mg/kg checked in presence of 30 to 100 mg/kg JBP485 by H and E staining based assay
[19] = tested on: Mus musculus; experiment: Anti-NASH activity in CCl4-induced nonalcoholic steatohepatitis C57BL mouse assessed as reduction in malondialdehyde level at 60 mg/kg
[20] = tested on: Mus musculus; experiment: Anti-NASH activity in CCl4-induced nonalcoholic steatohepatitis C57BL mouse assessed as reduction in total cholesterol level at 60 mg/kg
[21] = tested on: Mus musculus; experiment: Anti-NASH activity in CCl4-induced nonalcoholic steatohepatitis C57BL mouse assessed as reduction in serum ALT level at 60 mg/kg checked in presence of 30 to 100 mg/kg JBP485
[22] = tested on: Mus musculus; experiment: Anti-NASH activity in CCl4-induced nonalcoholic steatohepatitis C57BL mouse assessed as reduction in serum AST level at 60 mg/kg checked in presence of 30 to 100 mg/kg JBP485
[23] = tested on: Mus musculus; experiment: Anti-NASH activity in CCl4-induced nonalcoholic steatohepatitis C57BL mouse assessed as reduction in LDH level at 60 mg/kg checked in presence of JBP485
[24] = tested on: Mus musculus; experiment: Anti-NASH activity in CCl4-induced nonalcoholic steatohepatitis C57BL mouse assessed as reduction in steatosis at 60 mg/kg checked in presence of 30 to 100 mg/kg JBP485 by H and E staining based assay
[25] = tested on: Mus musculus; experiment: Anti-NASH activity in CCl4-induced nonalcoholic steatohepatitis C57BL mouse assessed as reduction in total cholesterol level at 100 mg/kg administered for 14 days; conditions: time 14.0 day
[26] = tested on: Mus musculus; experiment: Anti-NASH activity in CCl4-induced nonalcoholic steatohepatitis C57BL mouse assessed as reduction in liver lobular inflammation at 30 to 100 mg/kg checked in presence of vitamin E by H and E staining based assay; conditions: dose 30-100 mg/kg
[27] = tested on: Mus musculus; experiment: Anti-NASH activity in CCl4-induced nonalcoholic steatohepatitis C57BL mouse assessed as reduction in steatosis at 100 mg/kg by H and E staining based assay
[28] = tested on: Mus musculus; experiment: Anti-NASH activity in CCl4-induced nonalcoholic steatohepatitis C57BL mouse assessed as reduction in liver ballooning degeneration at 100 mg/kg by H and E staining based assay
[29] = tested on: Mus musculus; experiment: Anti-NASH activity in CCl4-induced nonalcoholic steatohepatitis C57BL mouse assessed as reduction in malondialdehyde level at 30 mg/kg checked in presence of vitamin E
[30] = tested on: Mus musculus; experiment: Anti-NASH activity in CCl4-induced nonalcoholic steatohepatitis C57BL mouse at 30 to 100 mg/kg checked in presence of vitamin E by Oil red-O staining based assay; conditions: dose 30-100 mg/kg
[31] = tested on: Mus musculus; experiment: Anti-NASH activity in CCl4-induced nonalcoholic steatohepatitis C57BL mouse assessed as reduction in triglyceride level at 100 mg/kg administered for 14 days; conditions: time 14.0 day
[32] = tested on: Mus musculus; experiment: Anti-NASH activity in CCl4-induced nonalcoholic steatohepatitis C57BL mouse assessed as reduction in liver index at 30 to 100 mg/kg checked in presence of 60 mg/kg vitamin E; conditions: dose 30-100 mg/kg
[33] = tested on: Mus musculus; experiment: Anti-NASH activity in CCl4-induced nonalcoholic steatohepatitis C57BL mouse assessed as reduction in triglyceride level at 30 mg/kg checked in presence of vitamin E
[34] = tested on: Mus musculus; experiment: Anti-NASH activity in CCl4-induced nonalcoholic steatohepatitis C57BL mouse assessed as reduction in total cholesterol level at 30 mg/kg checked in presence of vitamin E
[35] = tested on: Mus musculus; experiment: Anti-NASH activity in CCl4-induced nonalcoholic steatohepatitis C57BL mouse assessed as reduction in serum AST level at 30 to 100 mg/kg checked in presence of vitamin E; conditions: dose 30-100 mg/kg
[36] = tested on: Mus musculus; experiment: Anti-NASH activity in CCl4-induced nonalcoholic steatohepatitis C57BL mouse assessed as decrease in IL-2 expression at 30 mg/kg checked in presence of vitamin E by flow cytometry; conditions: time 14.0 day
[37] = tested on: Mus musculus; experiment: Anti-NASH activity in CCl4-induced nonalcoholic steatohepatitis C57BL mouse assessed as reduction in LDH level at 100 mg/kg checked in presence of vitamin E
[38] = tested on: Mus musculus; experiment: Anti-NASH activity in CCl4-induced nonalcoholic steatohepatitis C57BL mouse assessed as decrease in IFN expression at 100 mg/kg checked in presence of vitamin E by flow cytometry; conditions: time 14.0 day
[39] = tested on: Mus musculus; experiment: Anti-NASH activity in CCl4-induced nonalcoholic steatohepatitis C57BL mouse at 100 mg/kg by Oil red-O staining based assay
[40] = tested on: Mus musculus; experiment: Anti-NASH activity in CCl4-induced nonalcoholic steatohepatitis C57BL mouse assessed as reduction in serum ALT level at 30 to 100 mg/kg checked in presence of vitamin E; conditions: dose 30-100 mg/kg
[41] = tested on: Mus musculus; experiment: Anti-NASH activity in CCl4-induced nonalcoholic steatohepatitis C57BL mouse assessed as reduction in liver fibrosis at 100 mg/kg by sirius red staining based assay
[42] = tested on: Mus musculus; experiment: Anti-NASH activity in CCl4-induced nonalcoholic steatohepatitis C57BL mouse assessed as reduction in steatosis at 30 to 100 mg/kg checked in presence of vitamin E by H and E staining based assay; conditions: dose 30-100 mg/kg
[43] = tested on: Mus musculus; experiment: Anti-NASH activity in CCl4-induced nonalcoholic steatohepatitis C57BL mouse assessed as reduction in malondialdehyde level at 100 mg/kg administered for 14 days; conditions: time 14.0 day
[44] = tested on: Mus musculus; experiment: Anti-NASH activity in CCl4-induced nonalcoholic steatohepatitis C57BL mouse assessed as decrease in IL-17A expression at 30 mg/kg checked in presence of vitamin E by flow cytometry; conditions: time 14.0 day
[45] = tested on: Mus musculus; experiment: Anti-NASH activity in CCl4-induced nonalcoholic steatohepatitis C57BL mouse assessed as reduction in liver index at 100 mg/kg
[46] = tested on: Mus musculus; experiment: Anti-NASH activity in CCl4-induced nonalcoholic steatohepatitis C57BL mouse assessed as reduction in liver lobular inflammation at 100 mg/kg by H and E staining based assay
[47] = tested on: Mus musculus; experiment: Anti-NASH activity in CCl4-induced nonalcoholic steatohepatitis C57BL mouse assessed as reduction in liver fibrosis at 30 to 100 mg/kg checked in presence of vitamin E by sirius red staining based assay; conditions: dose 30-100 mg/kg
[48] = tested on: Mus musculus; experiment: Anti-NASH activity in CCl4-induced nonalcoholic steatohepatitis C57BL mouse assessed as reduction in liver ballooning degeneration at 30 to 100 mg/kg checked in presence of vitamin E by H and E staining based assay; conditions: dose 30-100 mg/kg
[49] = tested on: Mus musculus; experiment: Anti-NASH activity in CCl4-induced nonalcoholic steatohepatitis C57BL mouse assessed as reduction in HYP content in liver at 100 mg/kg administered for 14 days; conditions: time 14.0 day
[50] = tested on: Mus musculus; experiment: Anti-NASH activity in CCl4-induced nonalcoholic steatohepatitis C57BL mouse assessed as reduction in serum ALT level at 100 mg/kg
[51] = tested on: Mus musculus; experiment: Anti-NASH activity in CCl4-induced nonalcoholic steatohepatitis C57BL mouse assessed as reduction in serum AST level at 100 mg/kg
[52] = tested on: Mus musculus; experiment: Anti-NASH activity in CCl4-induced nonalcoholic steatohepatitis C57BL mouse assessed as decrease in IL-17A expression at 100 mg/kg by flow cytometry; conditions: time 14.0 day
[53] = tested on: Mus musculus; experiment: Anti-NASH activity in CCl4-induced nonalcoholic steatohepatitis C57BL mouse assessed as decrease in IL-2 expression at 100 mg/kg by flow cytometry; conditions: time 14.0 day
[54] = tested on: Mus musculus; experiment: Anti-NASH activity in CCl4-induced nonalcoholic steatohepatitis C57BL mouse assessed as reduction in LDH level at 100 mg/kg
[55] = tested on: Mus musculus; experiment: Anti-NASH activity in CCl4-induced nonalcoholic steatohepatitis C57BL mouse assessed as decrease in IFN expression at 100 mg/kg by flow cytometry; conditions: time 14.0 day

Measured: Activity

VITAMIN E
active: [1] | [2] | [3] | [4] | [5] | [6] | [7] | [8] | [9] | [10] | [11] | [12] | [13] | [14] | [15] | [16] | [17] | [18] | [19] | [20] | [21] | [22] | [23] | [24]

O=C1N[C@@H](CO)C(=O)N2C[C@H](O)C[C@@H]12
active: [25] | [26] | [27] | [28] | [29] | [30] | [31] | [32] | [33] | [34] | [35] | [36] | [37] | [38] | [39] | [40] | [41] | [42] | [43] | [44] | [45] | [46] | [47] | [48]

Cc1c(C)c2c(c(C)c1OC(=O)CCC(=O)O[C@@H]1C[C@H]3C(=O)N[C@@H](CO)C(=O)N3C1)CC[C@@](C)(CCC[C@H](C)CCC[C@H](C)CCCC(C)C)O2
active: [49] | [50] | [25] | [51] | [27] | [28] | [31] | [52] | [53] | [39] | [54] | [41] | [43] | [45] | [46] | [55]
